Data taken from US20220041613A1, “TYROSINE KINASE INHIBITOR COMPOSITIONS, METHODS OF MAKING AND METHODS OF USE” (Black Diamond Therapeutics, Inc., priority 2018, published 2022).
“Also recorded” adds a separate entry of the source. Where two headings read alike, the source gives them in different places.

What was measured:
[1] = test system: HER2-Δ16, HER2-C311R, HER2-S310F, HER4Δ16; assay: Western blot under non-reducing conditions: monomeric and dimeric HER2 and HER4 levels; format: cell-based, Homo sapiens
BaF3-HER2-Δ16 cells = assay: Proliferation of BaF3-HER2-Δ16 cells; conditions: sub-saturating concentrations
HER2 WT = biological target: T1, HER2 WT (Homo sapiens, UniProt P04626); assay: Assay for cell proliferation (CellTiterGlo), Activity for Inhibiting HER2; format: cell-based
T1 construct: endogenous in cells; host or cells: BT474
T1 sequence (P04626 23-1255): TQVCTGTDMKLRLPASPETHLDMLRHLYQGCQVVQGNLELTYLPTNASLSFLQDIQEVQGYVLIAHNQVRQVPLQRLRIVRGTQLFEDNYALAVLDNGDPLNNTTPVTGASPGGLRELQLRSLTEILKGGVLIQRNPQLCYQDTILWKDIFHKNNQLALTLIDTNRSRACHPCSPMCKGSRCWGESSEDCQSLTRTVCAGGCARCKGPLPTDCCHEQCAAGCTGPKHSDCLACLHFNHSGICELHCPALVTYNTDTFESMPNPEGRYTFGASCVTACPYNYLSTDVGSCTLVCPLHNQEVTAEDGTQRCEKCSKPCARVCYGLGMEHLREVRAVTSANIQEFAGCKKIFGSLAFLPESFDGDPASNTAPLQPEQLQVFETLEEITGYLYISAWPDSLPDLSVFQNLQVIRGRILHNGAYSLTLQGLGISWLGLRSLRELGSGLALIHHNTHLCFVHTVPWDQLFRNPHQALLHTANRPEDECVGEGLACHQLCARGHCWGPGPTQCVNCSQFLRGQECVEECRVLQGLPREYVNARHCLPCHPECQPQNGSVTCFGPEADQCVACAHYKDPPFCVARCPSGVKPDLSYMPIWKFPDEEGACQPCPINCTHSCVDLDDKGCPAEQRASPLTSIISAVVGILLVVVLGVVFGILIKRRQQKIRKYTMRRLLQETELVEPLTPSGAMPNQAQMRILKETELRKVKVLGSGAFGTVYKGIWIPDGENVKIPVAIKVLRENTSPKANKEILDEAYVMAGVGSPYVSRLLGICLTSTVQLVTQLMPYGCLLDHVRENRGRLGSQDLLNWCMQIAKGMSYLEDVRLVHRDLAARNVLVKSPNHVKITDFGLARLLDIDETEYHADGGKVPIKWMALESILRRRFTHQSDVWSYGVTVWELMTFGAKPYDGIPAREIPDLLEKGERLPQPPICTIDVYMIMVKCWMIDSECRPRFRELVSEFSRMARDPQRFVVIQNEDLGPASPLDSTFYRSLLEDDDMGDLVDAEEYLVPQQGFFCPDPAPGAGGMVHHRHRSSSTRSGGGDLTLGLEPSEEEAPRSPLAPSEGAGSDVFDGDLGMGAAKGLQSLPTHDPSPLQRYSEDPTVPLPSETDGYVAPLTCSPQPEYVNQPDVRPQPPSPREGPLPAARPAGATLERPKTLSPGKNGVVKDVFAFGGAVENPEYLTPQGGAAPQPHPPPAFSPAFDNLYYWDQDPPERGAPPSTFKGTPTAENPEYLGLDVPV

EGFR WT = biological target: T2, EGFR WT (Homo sapiens, UniProt P00533); assay: Assay for cell proliferation (CellTiterGlo), Activity for Inhibiting EGFR; format: cell-based; conditions: potency code, 3 days drug
T2 construct: endogenous in cells; host or cells: A431 (+H292)
T2 sequence (P00533 25-1210): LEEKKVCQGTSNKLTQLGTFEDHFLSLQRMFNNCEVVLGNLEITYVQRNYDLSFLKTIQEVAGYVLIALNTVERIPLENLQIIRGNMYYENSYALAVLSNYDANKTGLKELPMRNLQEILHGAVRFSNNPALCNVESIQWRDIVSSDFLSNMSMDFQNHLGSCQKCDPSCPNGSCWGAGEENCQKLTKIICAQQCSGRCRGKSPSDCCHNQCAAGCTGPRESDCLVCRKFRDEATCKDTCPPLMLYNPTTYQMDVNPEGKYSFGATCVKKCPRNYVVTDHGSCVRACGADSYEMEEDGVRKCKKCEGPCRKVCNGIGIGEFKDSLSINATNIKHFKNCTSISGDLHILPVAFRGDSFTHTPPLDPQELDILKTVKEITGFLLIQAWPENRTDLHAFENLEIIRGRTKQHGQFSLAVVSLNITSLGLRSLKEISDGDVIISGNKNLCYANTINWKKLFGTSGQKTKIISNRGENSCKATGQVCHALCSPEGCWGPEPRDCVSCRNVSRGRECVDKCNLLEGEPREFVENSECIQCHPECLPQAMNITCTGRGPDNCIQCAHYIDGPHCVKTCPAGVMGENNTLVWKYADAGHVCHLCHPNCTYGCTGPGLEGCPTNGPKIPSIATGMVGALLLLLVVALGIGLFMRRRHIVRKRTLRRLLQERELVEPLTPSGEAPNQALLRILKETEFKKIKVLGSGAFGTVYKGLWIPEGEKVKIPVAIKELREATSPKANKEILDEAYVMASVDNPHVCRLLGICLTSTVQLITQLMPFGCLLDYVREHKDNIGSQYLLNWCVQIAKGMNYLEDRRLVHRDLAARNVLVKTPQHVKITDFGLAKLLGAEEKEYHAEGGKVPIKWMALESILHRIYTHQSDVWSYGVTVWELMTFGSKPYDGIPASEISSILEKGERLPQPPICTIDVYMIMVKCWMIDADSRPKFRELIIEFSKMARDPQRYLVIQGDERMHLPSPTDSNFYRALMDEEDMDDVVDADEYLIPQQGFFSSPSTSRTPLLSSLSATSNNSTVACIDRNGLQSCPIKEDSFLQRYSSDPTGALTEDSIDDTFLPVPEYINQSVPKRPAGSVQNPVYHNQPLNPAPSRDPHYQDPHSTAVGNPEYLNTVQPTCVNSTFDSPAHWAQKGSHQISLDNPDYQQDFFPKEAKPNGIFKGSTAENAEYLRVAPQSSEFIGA

HER2 S310F = biological target: T3, HER2 S310F (Homo sapiens, UniProt P04626, S310F); assay: Assay for cell proliferation (BaF3 transformants, CellTiterGlo), Activity for Inhibiting HER2; format: cell-based; conditions: potency code, 3 days drug
T3 construct: expressed in transfected cells; host or cells: BaF3 (murine pro-B) transformants
T3 sequence (P04626 23-1255 S310F): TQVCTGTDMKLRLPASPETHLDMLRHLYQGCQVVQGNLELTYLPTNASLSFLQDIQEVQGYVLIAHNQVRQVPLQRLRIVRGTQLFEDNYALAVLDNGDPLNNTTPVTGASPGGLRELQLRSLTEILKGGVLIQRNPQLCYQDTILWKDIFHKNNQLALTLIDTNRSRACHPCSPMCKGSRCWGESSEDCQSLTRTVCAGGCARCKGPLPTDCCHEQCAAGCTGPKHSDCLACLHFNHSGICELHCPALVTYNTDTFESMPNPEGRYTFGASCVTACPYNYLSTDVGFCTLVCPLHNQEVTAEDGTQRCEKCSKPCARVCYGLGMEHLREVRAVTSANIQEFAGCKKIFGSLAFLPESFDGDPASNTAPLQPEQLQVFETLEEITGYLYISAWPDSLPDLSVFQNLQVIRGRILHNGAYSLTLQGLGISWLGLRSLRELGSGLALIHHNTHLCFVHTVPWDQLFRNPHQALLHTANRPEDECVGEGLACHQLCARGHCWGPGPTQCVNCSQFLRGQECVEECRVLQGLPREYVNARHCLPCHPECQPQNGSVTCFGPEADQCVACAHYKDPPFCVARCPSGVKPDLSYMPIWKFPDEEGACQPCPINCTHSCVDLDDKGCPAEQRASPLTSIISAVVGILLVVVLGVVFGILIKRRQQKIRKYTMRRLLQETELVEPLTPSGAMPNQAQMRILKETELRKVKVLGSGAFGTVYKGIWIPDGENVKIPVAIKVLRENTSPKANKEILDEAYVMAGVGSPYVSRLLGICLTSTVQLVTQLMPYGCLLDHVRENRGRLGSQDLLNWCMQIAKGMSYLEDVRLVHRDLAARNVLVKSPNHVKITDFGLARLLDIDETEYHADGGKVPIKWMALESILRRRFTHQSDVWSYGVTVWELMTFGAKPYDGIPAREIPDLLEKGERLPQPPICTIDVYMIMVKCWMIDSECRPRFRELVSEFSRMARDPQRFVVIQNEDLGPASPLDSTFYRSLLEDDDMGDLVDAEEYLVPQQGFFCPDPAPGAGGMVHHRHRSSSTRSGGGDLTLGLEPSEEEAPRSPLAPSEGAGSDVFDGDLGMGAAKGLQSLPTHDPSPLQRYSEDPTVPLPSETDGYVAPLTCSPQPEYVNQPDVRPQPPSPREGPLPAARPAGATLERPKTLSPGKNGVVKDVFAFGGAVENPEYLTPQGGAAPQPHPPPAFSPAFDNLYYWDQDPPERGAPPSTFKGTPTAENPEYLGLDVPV

HER2 YVMA = biological target: T4, HER2 YVMA (Homo sapiens, UniProt P04626, INS775YVMA); assay: as above; format: cell-based; conditions: potency code, 3 days drug
T4 construct: expressed in transfected cells; host or cells: BaF3 (murine pro-B) transformants

EGFR V3 (EGFR-Viii) = biological target: T5, EGFR V3 (EGFR-Viii) (Homo sapiens, UniProt P00533, DELINS30-297G); assay: Assay for cell proliferation (BaF3 transformants, CellTiterGlo), Activity for Inhibiting EGFR; format: cell-based; conditions: potency code, 3 days drug
T5 construct: expressed in transfected cells; host or cells: BaF3 (murine pro-B), retroviral pMXs-IRES-Blasticidin, selected for IL-3 independence
Method: (§1) Retroviral Production: EGFR mutants were subcloned into pMXs-IRES-Blasticidin (RTV-016, Cell Biolabs, San Diego, Calif.). Retroviral expression vector retrovirus was produced by transient transfection of HEK 293T cells with the retroviral EGFR mutant expression vector pMXs-IRES-Blasticidin (RTV-016, Cell Biolabs), pCMV-Gag-Pol vector and pCMV-VSV-G-Envelope vector. HEK 293T/17 cells were plated in 100 mm collagen coated plate (354450, Corning Life Sciences, Tewksbury, Mass.) (4×10^5 per plate) and incubated overnight. The next day, retroviral plasmids (3 μg of EGFR mutant, 1.0 μg of pCMV-Gag-Pol and 0.5 μg pCMV-VSV-G) were mixed in 500 μl of Optimem (31985, Life Technologies). The mixture was incubated at room temperature for 5 min and then added to Optimem containing transfection reagent Lipofectamine (11668, Invitrogen) and incubated for 20 minutes. Mixture was then added dropwise to HEK 293T cells. The next day the medium was replaced with fresh culture medium and retrovirus was harvested @ 24 and 48 hrs. Generation of EGFR mutant stable cell lines: BaF3 cells (1.5E5 cells) were infected with 1 ml of viral supernatant supplemented with 8 μg/ml polybrene by centrifuging for 30 min at 1000 rpm. Cells were placed in a 37° C. incubator overnight. Cells were then spun for 5 minutes to pellet the cells. Supernatant was removed and cells re-infected a fresh 1 ml of viral supernatant supplemented with 8 μg/ml polybrene by centrifuging for 30 min at 1000 rpm. Cells were placed in 37° C. incubator overnight. […] After 48 hours cells were selected for retroviral infection in 10 μg/ml Blasticidin for one week. Blasticidin resistant populations were washed twice in phosphate buffered saline before plating in media lacking IL-3 to select for IL-3 independent growth.
as §1, with “fresh 1 m1 of viral” for “fresh 1 ml of viral”

EGFR NPH = biological target: T6, EGFR NPH (Homo sapiens, UniProt P00533, INS773NPH); assay: as above; format: cell-based; conditions: potency code, 3 days drug
T6 construct: expressed in transfected cells; host or cells: BaF3 (murine pro-B), retroviral pMXs-IRES-Blasticidin, selected for IL-3 independence
T6 sequence (P00533 with tags, fused parts or gaps INS773NPH): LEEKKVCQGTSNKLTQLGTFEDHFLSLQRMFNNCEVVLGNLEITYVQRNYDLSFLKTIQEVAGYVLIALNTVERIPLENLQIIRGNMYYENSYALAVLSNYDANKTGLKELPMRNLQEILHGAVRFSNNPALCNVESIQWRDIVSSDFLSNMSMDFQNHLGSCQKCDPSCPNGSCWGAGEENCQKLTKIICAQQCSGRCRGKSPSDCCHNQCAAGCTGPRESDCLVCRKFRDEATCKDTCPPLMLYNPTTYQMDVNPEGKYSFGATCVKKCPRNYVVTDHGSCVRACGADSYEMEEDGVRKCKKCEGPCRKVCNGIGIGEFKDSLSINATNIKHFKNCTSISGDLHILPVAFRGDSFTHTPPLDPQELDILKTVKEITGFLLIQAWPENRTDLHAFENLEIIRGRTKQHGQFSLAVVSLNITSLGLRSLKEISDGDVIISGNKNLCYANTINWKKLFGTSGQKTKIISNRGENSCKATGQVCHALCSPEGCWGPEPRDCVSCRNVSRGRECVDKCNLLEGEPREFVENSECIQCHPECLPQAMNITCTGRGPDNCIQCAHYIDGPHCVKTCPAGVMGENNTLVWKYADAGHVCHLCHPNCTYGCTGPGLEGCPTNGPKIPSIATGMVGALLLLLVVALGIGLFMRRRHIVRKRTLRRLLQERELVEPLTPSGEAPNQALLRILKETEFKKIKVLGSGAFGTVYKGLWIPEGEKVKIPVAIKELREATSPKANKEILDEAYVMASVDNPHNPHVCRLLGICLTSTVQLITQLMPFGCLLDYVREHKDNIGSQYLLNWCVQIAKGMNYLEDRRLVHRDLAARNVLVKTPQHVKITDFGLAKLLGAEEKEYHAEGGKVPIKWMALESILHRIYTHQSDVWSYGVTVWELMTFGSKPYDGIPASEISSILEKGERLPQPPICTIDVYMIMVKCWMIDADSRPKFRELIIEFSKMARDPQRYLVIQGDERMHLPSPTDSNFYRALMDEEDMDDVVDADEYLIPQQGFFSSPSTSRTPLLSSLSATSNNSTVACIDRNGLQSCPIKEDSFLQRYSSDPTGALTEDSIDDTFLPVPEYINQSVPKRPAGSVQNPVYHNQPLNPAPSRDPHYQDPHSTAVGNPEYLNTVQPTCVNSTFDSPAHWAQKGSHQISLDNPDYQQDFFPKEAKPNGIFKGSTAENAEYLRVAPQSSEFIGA
Method: as §1
as §1, with “fresh 1 m1 of viral” for “fresh 1 ml of viral”

EGFR SVD = biological target: T7, EGFR SVD (Homo sapiens, UniProt P00533, INS770SVD); assay: as above; format: cell-based; conditions: potency code, 3 days drug
T7 construct: expressed in transfected cells; host or cells: BaF3 (murine pro-B), retroviral pMXs-IRES-Blasticidin, selected for IL-3 independence
Method: as §1
as §1, with “fresh 1 m1 of viral” for “fresh 1 ml of viral”

HER2 S310F BaF3 tumors = assay: Treatment of mice bearing HER2 mutant tumors, pHER2 and pERK via AlphaLisa; format: in vivo, Athymic nude mice; conditions: 15 mg/kg oral, two day acute dosing; at peak plasma levels
Method: Following the second dose, tumors were collected at 2 hours, 5 hours, 12 hours and 24 hours, and analyzed for both pHER2 activity and pERK activity via AlphaLisa. Plasma was also collected at these time points and analayzed for the presence of Compound No. 3 to determine pharmacokinetic profile. The tumor tissue was cut and homogenized using the Precellys Soft Tissue Homogenizing kit (KT03961-1-00.3.2) containing T-PER tissue protein extraction reagent (Thermo Scientific #78510), supplemented with Protease Inhibitor (Sigma P8340), and Phosphatase Inhibitors II and III (Sigma P5726 and P0044). Tissue samples were homogenized in the Precellys machine by spinning two times for one minute each. Sample tubes were centrifuged for 5 min at 15,000 rpm at 4° C. The supernatant was transferred to a fresh microtube and spun again for 5 minutes at 15,000 rpm at 4° C. Supernatant was then transferred to a fresh microtube and placed on ice. The protein concentration of the supernatant was measured using the BCA reagent Kit (Thermo Scientific #23225). Tumor tissue-derived lysates were analyzed for either HER2 activity or EGFR activity by detection of pHER2 (Tyr1221/1222) or pERK (Thr202/Tyr204) phosphosites, respectively, via AlphaLisa. […]

| IC50 (HER2 WT; 'about ... or less', read-out: IC50 value for inhibiting wild-type HER2) | IC50 (HER2 WT; Table B (Example 2), potency code, 3 days drug, read-out: HER2 WT) | IC50 (HER2 WT; Table B, potency code, 3 days drug, read-out: HER2 WT) | IC50 (EGFR WT; Table A (Example 2)) | IC50 (EGFR WT; Table A) | IC50 (HER2 S310F; Table B (Example 2)) | IC50 (HER2 S310F; Table B) | IC50 (HER2 YVMA; Table B (Example 2)) | IC50 (HER2 YVMA; Table B) | IC50 (EGFR V3 (EGFR-Viii); Table A (Example 2)) | IC50 (EGFR V3 (EGFR-Viii); Table A) | IC50 (EGFR NPH; Table A (Example 2)) | IC50 (EGFR NPH; Table A) | IC50 (EGFR SVD; Table A (Example 2)) | IC50 (EGFR SVD; Table A) | Structure (SMILES) | covalent dimers of HER2 and HER4 extracellular variants [1] | proliferation of BaF3-HER2-Δ16 cells (BaF3-HER2-Δ16 cells) | pERK1/2 (Thr202/Tyr204) in tumors (HER2 S310F BaF3 tumors) | pHER2 (Tyr1221/1222) in tumors (HER2 S310F BaF3 tumors) |
| --- | --- | --- | --- | --- | --- | --- | --- | --- | --- | --- | --- | --- | --- | --- | --- | --- | --- | --- | --- |
|  |  |  |  |  |  |  |  |  |  |  |  |  |  |  | CNC(=O)CN1CCC(Oc2cc3c(Nc4cccc(Cl)c4F)ncnc3cc2OC)CC1 [sapitinib] | levels of covalent dimers increased; also recorded: induce the expression of covalent dimers; also recorded: induce the formation of covalent dimers; also recorded: dose dependent increase in covalently dimerized receptors | paradoxically stimulate the proliferation |  |  |
| ≤ 6 nM | < 5 nM | < 5 nM | 200 to 300 nM | 200 to 300 nM | 5 to 10 nM | 5 to 10 nM | 20 to 30 nM | 20 to 30 nM | 10 to 20 nM | 10 to 20 nM | 10 to 20 nM | 10 to 20 nM | 10 to 20 nM | 10 to 20 nM | C=CC(=O)Nc1cc2c(Nc3ccc4c(cnn4Cc4cccc(F)c4)c3)ncnc2cc1OCCN1CCOCC1 [compound 3] |  |  | reduction | reduction |
